Experimental data: ChEMBL document CHEMBL1201862, “PubChem BioAssay data set” (2004)
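How tested: cells in 96-well plates exposed to compound for 48 hours at five concentrations. Here, GI50 denotes the concentration required for 50% inhibition of growth.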 Calls of active or inactive are those of the source. Cut-off read from the data, not from the text of the source: active = GI50 up to about 1.1 µM and inactive = higher.

Key:
Assay in all cases: NCI-60 cell line screen, 48 h
CCRF-CEM = tested on: CCRF-CEM
HOP-62 = tested on: HOP-62
HOP-92 = tested on: HOP-92
HT-29 = tested on: HT-29
IGROV-1 = tested on: IGROV-1
MOLT-4 = tested on: MOLT-4
OVCAR-3 = tested on: OVCAR-3
OVCAR-5 = tested on: OVCAR-5
RPMI-8226 = tested on: RPMI-8226
SF-539 = tested on: SF-539
SK-MEL-28 = tested on: SK-MEL-28
SK-MEL-2 = tested on: SK-MEL-2
SK-MEL-5 = tested on: SK-MEL-5
SN12C = tested on: SN12C
T47D = tested on: T47D
TK-10 = tested on: TK-10
U-251 = tested on: U-251
UACC-257 = tested on: UACC-257
UACC-62 = tested on: UACC-62
UO-31 = tested on: UO-31

Measured: GI50

C[N+](C)(C)c1ncnc2c1ncn2C1CCCO1 (stereo not given)
inactive: CCRF-CEM > 100 µM | HOP-62 > 100 µM | HOP-92 > 100 µM | HT-29 > 100 µM | IGROV-1 > 100 µM | MOLT-4 > 100 µM | OVCAR-3 > 100 µM | OVCAR-5 > 100 µM | RPMI-8226 > 100 µM | SF-539 > 100 µM | SK-MEL-28 > 100 µM | SK-MEL-2 > 100 µM | SK-MEL-5 > 100 µM | SN12C > 100 µM | T47D > 100 µM | TK-10 > 100 µM | U-251 > 100 µM | UACC-257 > 100 µM | UACC-62 > 100 µM | UO-31 > 100 µM

CN1c2ccccc2C(=O)Nc2cnc(Cl)nc21
inactive: CCRF-CEM > 100 µM | HOP-62 31.1 µM | HOP-92 35.7 µM | HT-29 > 100 µM | IGROV-1 > 100 µM | MOLT-4 > 100 µM | OVCAR-3 > 100 µM | OVCAR-5 > 100 µM | RPMI-8226 > 100 µM | SF-539 49.1 µM | SK-MEL-28 > 100 µM | SK-MEL-2 > 100 µM | SK-MEL-5 > 100 µM | SN12C 66.7 µM | T47D > 100 µM | TK-10 > 100 µM | U-251 45.5 µM | UACC-257 > 100 µM | UACC-62 > 100 µM | UO-31 > 100 µM

CCCCCCCCCCCCCCCCCCOCC(CCP(=O)(CP(=O)(O)O)Oc1ccccc1)OCCCCCCCCCCCCCCCCCC (stereo not given)
inactive: CCRF-CEM > 100 µM | HOP-62 > 100 µM | HOP-92 > 100 µM | HT-29 > 100 µM | IGROV-1 > 100 µM | MOLT-4 > 100 µM | OVCAR-3 > 100 µM | OVCAR-5 > 100 µM | RPMI-8226 > 100 µM | SF-539 > 100 µM | SK-MEL-28 > 100 µM | SK-MEL-5 > 100 µM | SN12C > 100 µM | T47D > 100 µM | TK-10 > 100 µM | U-251 > 100 µM | UACC-257 > 100 µM | UACC-62 > 100 µM

CC(C)(C)OC(=O)NCCCCC(N)C(N)=O (stereo not given)
inactive: CCRF-CEM > 100 µM | HOP-62 > 100 µM | HOP-92 > 100 µM | HT-29 > 100 µM | IGROV-1 > 100 µM | MOLT-4 > 100 µM | OVCAR-3 > 100 µM | OVCAR-5 > 100 µM | RPMI-8226 > 100 µM | SF-539 > 100 µM | SK-MEL-28 > 100 µM | SK-MEL-2 > 100 µM | SK-MEL-5 78.7 µM | SN12C > 100 µM | T47D > 100 µM | TK-10 > 100 µM | U-251 > 100 µM | UACC-257 > 100 µM | UACC-62 7.46 µM | UO-31 > 100 µM

NC(Cc1ccccc1)C(=O)NC(Cc1ccccc1)NC(=O)C(Cc1c[nH]c2ccccc12)C(=O)O (stereo not given)
inactive: CCRF-CEM > 100 µM | HOP-62 > 100 µM | HOP-92 34.8 µM | HT-29 > 100 µM | IGROV-1 > 100 µM | OVCAR-3 > 100 µM | OVCAR-5 > 100 µM | RPMI-8226 > 100 µM | SF-539 > 100 µM | SK-MEL-28 > 100 µM | SK-MEL-2 9.35 µM | SK-MEL-5 12 µM | SN12C > 100 µM | T47D > 100 µM | TK-10 > 100 µM | U-251 > 100 µM | UACC-257 > 100 µM | UACC-62 > 100 µM | UO-31 51.9 µM

CC(=O)N1C(Nc2nccs2)CCN1c1ccccc1 (stereo not given)
inactive: CCRF-CEM > 10 µM | HOP-62 > 10 µM | HOP-92 > 10 µM | HT-29 > 10 µM | IGROV-1 > 10 µM | MOLT-4 > 10 µM | OVCAR-3 > 10 µM | OVCAR-5 > 10 µM | RPMI-8226 > 10 µM | SF-539 > 10 µM | SK-MEL-28 > 10 µM | SK-MEL-2 > 10 µM | SK-MEL-5 > 10 µM | SN12C > 10 µM | T47D > 10 µM | TK-10 > 10 µM | UACC-257 > 10 µM

CCOC(=O)C(NC(=O)CC(C)C)(NC(C)C)C(F)(F)F (stereo not given)
inactive: CCRF-CEM > 100 µM | HOP-62 > 100 µM | HOP-92 > 100 µM | HT-29 > 100 µM | IGROV-1 > 100 µM | MOLT-4 > 100 µM | OVCAR-3 > 100 µM | OVCAR-5 > 100 µM | RPMI-8226 > 100 µM | SF-539 > 100 µM | SK-MEL-28 > 100 µM | SK-MEL-2 > 100 µM | SK-MEL-5 > 100 µM | SN12C > 100 µM | T47D > 100 µM | TK-10 > 100 µM | U-251 > 100 µM | UACC-257 > 100 µM | UO-31 > 100 µM

N#CC(C#N)=C/C=C/c1ccccc1[N+](=O)[O-]
inactive: CCRF-CEM 7.57 µM | HOP-62 > 10 µM | HOP-92 5.08 µM | HT-29 6.62 µM | IGROV-1 > 10 µM | MOLT-4 4.54 µM | OVCAR-3 4.98 µM | RPMI-8226 3.19 µM | SF-539 6.76 µM | SK-MEL-28 2.11 µM | SK-MEL-2 > 10 µM | SK-MEL-5 3.74 µM | SN12C > 10 µM | T47D > 10 µM | TK-10 > 10 µM | U-251 > 10 µM | UACC-257 2.68 µM | UACC-62 3 µM | UO-31 5.78 µM

CC(=O)Oc1ccc2oc(=O)cc(C)c2c1
inactive: CCRF-CEM > 100 µM | HOP-62 > 100 µM | HOP-92 > 100 µM | HT-29 > 100 µM | IGROV-1 > 100 µM | MOLT-4 > 100 µM | OVCAR-3 > 100 µM | RPMI-8226 > 100 µM | SF-539 > 100 µM | SK-MEL-28 > 100 µM | SK-MEL-2 > 100 µM | SK-MEL-5 > 100 µM | SN12C > 100 µM | T47D > 100 µM | TK-10 > 100 µM | U-251 > 100 µM | UACC-257 > 100 µM | UO-31 > 100 µM

Clc1ncnc(Cl)c1Cl
inactive: CCRF-CEM > 100 µM | HOP-62 > 100 µM | HOP-92 > 100 µM | HT-29 > 100 µM | IGROV-1 > 100 µM | MOLT-4 > 100 µM | OVCAR-3 > 100 µM | OVCAR-5 > 100 µM | RPMI-8226 4.41 µM | SF-539 > 100 µM | SK-MEL-28 > 100 µM | SK-MEL-5 > 100 µM | SN12C > 100 µM | T47D > 100 µM | TK-10 > 100 µM | U-251 > 100 µM | UACC-62 > 100 µM | UO-31 > 100 µM

C/C(=N\NC(=O)c1ccncc1)c1cccc(F)c1
inactive: CCRF-CEM > 10 µM | HOP-62 > 10 µM | HOP-92 > 10 µM | IGROV-1 > 10 µM | MOLT-4 > 10 µM | OVCAR-3 > 10 µM | OVCAR-5 > 10 µM | RPMI-8226 > 10 µM | SF-539 > 10 µM | SK-MEL-28 > 10 µM | SK-MEL-2 > 10 µM | SK-MEL-5 > 10 µM | SN12C > 10 µM | T47D > 10 µM | TK-10 > 10 µM | U-251 > 10 µM | UO-31 > 10 µM
